These results are taken from patent publication US9643991B2, “Process for preparing a novel crystalline form of emamectin benzoate and use the same” (ROTAM AGROCHEM INTERNATIONAL CO., LTD, priority 2015, dated 2017).

The conditions of data set [1]: cited from earlier work.
Data set [2] concerns Lepidoptera pole larvae and many other pests. The conditions noted are these: cited from earlier work.
Data set [3] is described as follows: Stability of the crystalline modification during prolonged storage. The data set is classed as physicochemical.
The nature of data set [4]: Residue of diluted SG formulations passed through the wet sieve. The data set is classed as physicochemical. Here is the method: The procedure in Example 5 was repeated by using emamectin benzoate crystalline forms A and B mentioned in U.S. Pat. No. 6,486,195.
SG samples prepared in Examples 5 and 6 were diluted with water and their residues were compared by passing through the wet sieve.

Turning to “4″-deoxy-4″-epi-methylamino avermectin B1a/B1b [Emamectin benzoate]”, the Solubility in acetone entry in data set [1] (acetone) is reported as “soluble”. Further, the Solubility in ethanol entry in data set [1] (ethanol) was “soluble”. Also, the Solubility in hexane entry in data set [1] (hexane) is given as “insoluble”. Further, in data set [1] (methanol), the Solubility in methanol result is on record as “soluble”. Besides, the Solubility in water entry in data set [1] (water) is recorded as “slightly soluble”. In addition, in data set [2] (compared with abamectin, doramectin, ivermectin), the “Insecticidal activity higher than other avermectin pesticides” value is listed as 1-3 orders of magnitude. Also, the Effective dose in data set [2] (very low doses) was 0.084-2 g/ha.
“4″-deoxy-4″-epi-methylamino avermectin B1a/B1b [Crystalline forms V]”: the “Conversion to other crystalline modifications” value in data set [3] is reported as “does not convert to other crystalline modifications”. The “Residue, Dilution factor 100” value in data set [4] (SG samples of Examples 5 and 6 diluted with water, wet sieve, dilution factor 100) is listed as “No residue”. Also, the “Residue, Dilution factor 1000” value in data set [4] (SG samples of Examples 5 and 6 diluted with water, wet sieve, dilution factor 1000) is on record as “No residue”. The Stability after dilution result in data set [4] (after dilution, compared to other crystal forms) was “extremely stable after dilution”.
